Values after ≈ are worked out from the molar mass of the structure shown. Active and inactive are the calls of the source. The rule behind the calls is not given here.

Results on 10 compounds are retold here after ChEMBL document CHEMBL5357054, “Expanding the Chemical Diversity of Grisechelins via Heterologous Expression” (2024).

Experiment [1] concerns Mycobacterium tuberculosis. Nature of the experiment: Antibacterial activity against autoluminescent Mycobacterium tuberculosis H37Ra by 7H9 broth based assay. Type of experiment: functional.
Another experiment deals with Acinetobacter baumannii. Nature of the experiment: Antibacterial activity against Acinetobacter baumannii ATCC 19606 incubated for 24 hrs by broth microdilution method. Type of experiment: functional, organism-based.
The next experiment relates to Staphylococcus aureus. Nature of the experiment: Antibacterial activity against methicillin resistant Staphylococcus aureus ATCC 43300 incubated for 24 hrs by broth microdilution method. Type of experiment: functional, organism-based.

For the compound `OCc1csc(-c2nc3ccccc3cc2O)n1`, the outcome (in experiment [1]; in the experiment with Acinetobacter baumannii; in the experiment with Staphylococcus aureus) was inactive.

As for `NC(=O)c1nc2ccc(Cl)cc2c(Cl)c1O`, the result (in experiment [1]; in the experiment with Acinetobacter baumannii; in the experiment on Staphylococcus aureus) was inactive.

Turning to `CC(=O)/C=C/c1csc(-c2nc3ccc(Cl)cc3c(Cl)c2O)n1`, the outcome (in experiment [1]; in the experiment on Acinetobacter baumannii; in the experiment on Staphylococcus aureus) was inactive.

In the case of `OCc1csc(-c2nc3ccccc3c(Cl)c2O)n1`, the result (in experiment [1]; in the experiment with Acinetobacter baumannii; in the experiment with Staphylococcus aureus) was inactive.

On to `NC(=O)c1csc(-c2csc(-c3nc4ccccc4c(Cl)c3O)n2)n1`, for which the result (in experiment [1]; in the experiment with Acinetobacter baumannii; with Staphylococcus aureus) was inactive.

In the case of `OCc1csc(-c2nc3ccc(Cl)cc3c(Cl)c2O)n1`, in experiment [1], it took 8 µg/mL (≈ 24.5 µM) to inhibit growth (MIC).

Turning to `O=C(OCc1csc(-c2nc3ccc(Cl)cc3c(Cl)c2O)n1)c1ccccc1O`, the result (in experiment [1]; in the experiment with Acinetobacter baumannii; with Staphylococcus aureus) was inactive.

As for `NC(=O)[C@@H]1CSC(c2csc(-c3nc4ccccc4cc3O)n2)=N1`, the outcome (in experiment [1]; with Acinetobacter baumannii; with Staphylococcus aureus) was inactive.

For `O=C(O)c1nc2ccc(Cl)cc2cc1O`, the outcome (in experiment [1]; in the experiment on Acinetobacter baumannii; in the experiment with Staphylococcus aureus) was inactive.

For `NC(=O)[C@@H]1CSC(c2csc(-c3nc4ccc(Cl)cc4cc3O)n2)=N1`, the outcome (in experiment [1]; in the experiment on Acinetobacter baumannii; in the experiment with Staphylococcus aureus) was inactive.

Usually MIC stands for the lowest concentration that inhibits growth of the organism. Read a high MIC as a need for much substance.
